For this experiment, the target named is T1, full-length ATR (Homo sapiens, UniProt Q13535).
T1 construct: Assays were carried out at 25° C. in the presence of 5 nM full-length ATR
Kind of experiment: ATR Inhibition Assay (radioactive-phosphate incorporation). The class given is biochemical. Conditions: Ki(app); 5 nM full-length ATR, 10 μM ATP, 800 μM target peptide, 25° C. On the procedure: Compounds were screened for their ability to inhibit ATR kinase using a radioactive-phosphate incorporation assay. Assays were carried out in a mixture of 50 mM Tris/HCl (pH 7.5), 10 mM MgCl2 and 1 mM DTT. Final substrate concentrations were 10 μM [γ-33P]ATP (3mCi 33P ATP/mmol ATP, Perkin Elmer) and 800 μM target peptide (ASELPASQPQPFSAKKK) (SEQ. ID. NO: 1).
Assays were carried out at 25° C. in the presence of 5 nM full-length ATR. An assay stock buffer solution was prepared containing all of the reagents listed above, with the exception of ATP and the test compound of interest. 13.5 μL of the stock solution was placed in a 96 well plate followed by addition of 2 μL of DMSO stock containing serial dilutions of the test compound (typically starting from a final concentration of 15 μM with 3-fold serial dilutions) in duplicate (final DMSO concentration 7%). The plate was pre-incubated for 10 minutes at 25° C. and the reaction initiated by addition of 15 μL [γ-33P]ATP (final concentration 10 μM).
The reaction was stopped after […] by the addition of 30 μL 0.1M phosphoric acid containing 2 mM ATP. A multiscreen phosphocellulose filter 96-well plate (Millipore, Cat no. MAPHN0B50) was pretreated with 100 μL 0.2M phosphoric acid prior to the addition of 45 μL of the stopped assay mixture. The plate was washed with 5×200 μL 0.2M phosphoric acid. After drying, 100 μL Optiphase ‘SuperMix’ liquid scintillation cocktail (Perkin Elmer) was added to the well prior to scintillation counting (1450 Microbeta Liquid Scintillation Counter, Wallac).
After removing mean background values for all of the data points, Ki(app) data were calculated from non-linear regression analysis of the initial rate data using the Prism software package (GraphPad Prism version 3.0cx for Macintosh, GraphPad Software, San Diego Calif., USA).
Below is a chart showing the ATR Inhibition Ki values of compounds of the disclosure.

The structures appear in SMILES notation. Bounds are passed on as bounds.

T1 sequence (Q13535 whole entry): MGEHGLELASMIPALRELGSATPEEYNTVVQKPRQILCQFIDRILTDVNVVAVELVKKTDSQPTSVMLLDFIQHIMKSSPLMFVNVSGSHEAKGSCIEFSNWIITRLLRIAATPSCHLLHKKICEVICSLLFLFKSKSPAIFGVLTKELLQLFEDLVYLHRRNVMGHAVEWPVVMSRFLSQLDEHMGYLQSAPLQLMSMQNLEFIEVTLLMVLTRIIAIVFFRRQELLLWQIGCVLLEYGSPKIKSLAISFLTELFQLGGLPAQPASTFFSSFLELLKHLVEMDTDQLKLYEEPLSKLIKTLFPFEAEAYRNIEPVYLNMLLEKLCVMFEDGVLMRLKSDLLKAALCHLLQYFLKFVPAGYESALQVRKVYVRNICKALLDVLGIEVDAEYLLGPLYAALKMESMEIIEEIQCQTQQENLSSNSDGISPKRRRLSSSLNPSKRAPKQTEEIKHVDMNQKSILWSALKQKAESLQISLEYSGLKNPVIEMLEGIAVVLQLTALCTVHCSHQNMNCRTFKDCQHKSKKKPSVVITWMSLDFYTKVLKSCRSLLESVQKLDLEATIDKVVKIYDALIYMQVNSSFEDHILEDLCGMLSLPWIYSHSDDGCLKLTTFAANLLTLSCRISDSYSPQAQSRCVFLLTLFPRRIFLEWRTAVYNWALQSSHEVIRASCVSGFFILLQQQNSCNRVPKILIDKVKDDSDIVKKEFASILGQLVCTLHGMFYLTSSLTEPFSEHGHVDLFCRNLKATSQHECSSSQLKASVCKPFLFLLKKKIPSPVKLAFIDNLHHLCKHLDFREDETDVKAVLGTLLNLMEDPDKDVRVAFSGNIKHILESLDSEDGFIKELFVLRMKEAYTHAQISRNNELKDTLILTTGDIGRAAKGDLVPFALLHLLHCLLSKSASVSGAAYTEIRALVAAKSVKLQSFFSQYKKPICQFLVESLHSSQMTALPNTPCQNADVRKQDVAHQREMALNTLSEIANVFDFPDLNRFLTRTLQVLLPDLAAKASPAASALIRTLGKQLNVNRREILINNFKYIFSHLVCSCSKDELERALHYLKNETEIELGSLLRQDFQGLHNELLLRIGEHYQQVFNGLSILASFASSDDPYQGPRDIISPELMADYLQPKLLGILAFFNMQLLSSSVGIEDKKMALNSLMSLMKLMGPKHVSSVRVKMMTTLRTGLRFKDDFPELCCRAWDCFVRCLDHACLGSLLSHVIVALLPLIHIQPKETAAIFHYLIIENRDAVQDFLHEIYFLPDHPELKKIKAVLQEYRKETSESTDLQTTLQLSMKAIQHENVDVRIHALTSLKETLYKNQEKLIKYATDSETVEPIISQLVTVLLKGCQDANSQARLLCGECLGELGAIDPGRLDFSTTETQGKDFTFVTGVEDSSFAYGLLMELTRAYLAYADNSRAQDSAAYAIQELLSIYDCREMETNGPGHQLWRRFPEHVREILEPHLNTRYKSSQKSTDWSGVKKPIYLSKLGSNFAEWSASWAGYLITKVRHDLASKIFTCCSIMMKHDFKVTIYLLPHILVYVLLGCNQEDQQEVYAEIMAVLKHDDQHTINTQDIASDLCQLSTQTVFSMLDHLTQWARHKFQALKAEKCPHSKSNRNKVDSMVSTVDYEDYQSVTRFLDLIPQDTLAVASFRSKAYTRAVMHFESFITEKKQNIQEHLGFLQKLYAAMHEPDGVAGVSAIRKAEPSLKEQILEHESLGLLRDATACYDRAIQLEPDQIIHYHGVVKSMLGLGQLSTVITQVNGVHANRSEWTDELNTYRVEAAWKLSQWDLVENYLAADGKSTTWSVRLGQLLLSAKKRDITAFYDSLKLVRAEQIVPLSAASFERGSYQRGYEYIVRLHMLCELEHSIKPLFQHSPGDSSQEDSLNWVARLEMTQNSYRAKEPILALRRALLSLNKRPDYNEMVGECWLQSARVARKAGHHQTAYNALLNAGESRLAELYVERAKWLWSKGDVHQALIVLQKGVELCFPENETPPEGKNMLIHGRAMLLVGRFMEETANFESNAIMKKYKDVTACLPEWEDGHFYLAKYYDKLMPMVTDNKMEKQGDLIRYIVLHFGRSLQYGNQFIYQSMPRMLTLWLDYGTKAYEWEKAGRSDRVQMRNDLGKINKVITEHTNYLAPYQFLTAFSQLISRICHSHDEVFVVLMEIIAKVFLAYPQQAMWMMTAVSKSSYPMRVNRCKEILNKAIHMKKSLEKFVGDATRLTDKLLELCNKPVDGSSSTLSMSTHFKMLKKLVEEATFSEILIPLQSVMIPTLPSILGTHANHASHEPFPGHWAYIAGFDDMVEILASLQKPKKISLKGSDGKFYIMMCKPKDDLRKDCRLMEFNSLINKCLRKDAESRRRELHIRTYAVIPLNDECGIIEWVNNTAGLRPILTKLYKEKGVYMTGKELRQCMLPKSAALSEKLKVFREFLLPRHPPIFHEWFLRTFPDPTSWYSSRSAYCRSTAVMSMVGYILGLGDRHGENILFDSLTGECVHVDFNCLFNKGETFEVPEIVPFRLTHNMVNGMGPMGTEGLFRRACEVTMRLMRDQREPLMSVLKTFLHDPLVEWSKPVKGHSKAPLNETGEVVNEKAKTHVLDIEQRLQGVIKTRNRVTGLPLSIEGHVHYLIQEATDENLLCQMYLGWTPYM

As for `CC(C)S(=O)(=O)c1ccc(-c2cnc3[nH]cc(N4Cc5cc(N(C)C6CCNCC6)ccc5C4=O)c3n2)cc1` [Compound I-31, 2-(2-(4-(isopropylsulfonyl)phenyl)-5H-pyrrolo[2,3-b]pyrazin-7-yl)-5-(methyl(piperidin-4-yl)amino)isoindolin-1-one], the Ki was at most 50 nM.

On to `CC(C)S(=O)(=O)c1ccc(-c2cnc3[nH]cc(N4Cc5cc(NCCN6CCOCC6)ccc5C4=O)c3n2)cc1` [Compound I-32, 2-(2-(4-(isopropylsulfonyl)phenyl)-5H-pyrrolo[2,3-b]pyrazin-7-yl)-5-((2-morpholinoethyl)amino)isoindolin-1-one], for which the Ki was at most 50 nM. Next, `CC(C)S(=O)(=O)c1ccc(-c2cnc3[nH]cc(N4Cc5cc(N6CCC(CN)CC6)ccc5C4=O)c3n2)cc1` [Compound I-33, 5-(4-(aminomethyl)piperidin-1-yl)-2-(2-(4-(isopropylsulfonyl)phenyl)-5H-pyrrolo[2,3-b]pyrazin-7-yl)isoindolin-1-one]: 50 to 100 nM; `CC(C)S(=O)(=O)c1ccc(-c2cnc3[nH]cc(N4Cc5cc(NCCN)ccc5C4=O)c3n2)cc1` [Compound I-34, 5-((2-aminoethyl)amino)-2-(2-(4-(isopropylsulfonyl)phenyl)-5H-pyrrolo[2,3-b]pyrazin-7-yl)isoindolin-1-one]: at most 50 nM. Next, `CC(C)S(=O)(=O)c1ccc(-c2cnc3[nH]cc(N4Cc5cc(N6CC[C@@H](CN)C6)ccc5C4=O)c3n2)cc1` [Compound I-35, (S)-5-(3-(aminomethyl)pyrrolidin-1-yl)-2-(2-(4-(isopropylsulfonyl)phenyl)-5H-pyrrolo[2,3-b]pyrazin-7-yl)isoindolin-1-one]: at most 50 nM.

Take `CC(C)S(=O)(=O)c1ccc(-c2cnc3[nH]cc(N4Cc5cc(N(C)CCCN(C)C)ccc5C4=O)c3n2)cc1` [Compound I-36, 5-((3-(dimethylamino)propyl)(methyl)amino)-2-(2-(4-(isopropylsulfonyl)phenyl)-5H-pyrrolo[2,3-b]pyrazin-7-yl)isoindolin-1-one]: the Ki is at most 50 nM. Next, `CC(C)S(=O)(=O)c1ccc(-c2cnc3[nH]cc(N4Cc5cc(N6CCC(N(C)C)CC6)ccc5C4=O)c3n2)cc1` [Compound I-37, 5-(4-(dimethylamino)piperidin-1-yl)-2-(2-(4-(isopropylsulfonyl)phenyl)-5H-pyrrolo[2,3-b]pyrazin-7-yl)isoindolin-1-one]: at most 50 nM; `CC(C)S(=O)(=O)c1ccc(-c2cnc3[nH]cc(N4Cc5cc(N6CCCNCC6)ccc5C4=O)c3n2)cc1` [Compound I-38, 5-(1,4-diazepan-1-yl)-2-(2-(4-(isopropylsulfonyl)phenyl)-5H-pyrrolo[2,3-b]pyrazin-7-yl)isoindolin-1-one]: at most 50 nM; `CC(C)S(=O)(=O)c1ccc(-c2cnc3[nH]cc(N4Cc5cc(NC6CNC6)ccc5C4=O)c3n2)cc1` [Compound I-39, 5-(azetidin-3-ylamino)-2-(2-(4-(isopropylsulfonyl)phenyl)-5H-pyrrolo[2,3-b]pyrazin-7-yl)isoindolin-1-one]: at most 50 nM. Next, `CC(C)S(=O)(=O)c1ccc(-c2cnc3[nH]cc(N4Cc5cc(NCC6CCCNC6)ccc5C4=O)c3n2)cc1` (stereo not drawn) [Compound I-40, 2-(2-(4-(isopropylsulfonyl)phenyl)-5H-pyrrolo[2,3-b]pyrazin-7-yl)-5-((piperidin-3-ylmethyl)amino)isoindolin-1-one]: at most 50 nM. Next, `CC(C)S(=O)(=O)c1ccc(-c2cnc3[nH]cc(N4Cc5cc(N6CC[C@H](N)C6)ccc5C4=O)c3n2)cc1` [Compound I-41, (S)-5-(3-aminopyrrolidin-1-yl)-2-(2-(4-(isopropylsulfonyl)phenyl)-5H-pyrrolo[2,3-b]pyrazin-7-yl)isoindolin-1-one]: at most 50 nM; `CC(C)S(=O)(=O)c1ccc(-c2cnc3[nH]cc(N4Cc5cc(N6CC[C@@H](N)C6)ccc5C4=O)c3n2)cc1` [Compound I-42, (R)-5-(3-aminopyrrolidin-1-yl)-2-(2-(4-(isopropylsulfonyl)phenyl)-5H-pyrrolo[2,3-b]pyrazin-7-yl)isoindolin-1-one]: at most 50 nM. For the molecule `CC(C)S(=O)(=O)c1ccc(-c2cnc3[nH]cc(N4Cc5cc(-c6ccn[nH]6)ccc5C4=O)c3n2)cc1` [Compound I-43, 2-(2-(4-(isopropylsulfonyl)phenyl)-5H-pyrrolo[2,3-b]pyrazin-7-yl)-5-(1H-pyrazol-5-yl)isoindolin-1-one], the Ki was at most 50 nM.

On to `CNc1cccc2c1C(=O)N(c1c[nH]c3ncc(-c4ccc(S(=O)(=O)C(C)C)cc4)nc13)C2` [Compound I-44, 2-(2-(4-(isopropylsulfonyl)phenyl)-5H-pyrrolo[2,3-b]pyrazin-7-yl)-7-(methylamino)isoindolin-1-one], for which the Ki fell in the range of 50 to 100 nM. Next, `CC(C)S(=O)(=O)c1ccc(-c2cnc3[nH]cc(N4Cc5cccc(N(C)C)c5C4=O)c3n2)cc1` [Compound I-45, 7-(dimethylamino)-2-(2-(4-(isopropylsulfonyl)phenyl)-5H-pyrrolo[2,3-b]pyrazin-7-yl)isoindolin-1-one]: at most 50 nM; `CC(C)S(=O)(=O)c1ccc(-c2cnc3[nH]cc(N4Cc5ccc(OCCN(C)C)cc5C4=O)c3n2)cc1` [Compound I-46, 6-(2-(dimethylamino)ethoxy)-2-(2-(4-(isopropylsulfonyl)phenyl)-5H-pyrrolo[2,3-b]pyrazin-7-yl)isoindolin-1-one]: at most 50 nM; `CC(C)S(=O)(=O)c1ccc(-c2cnc3[nH]cc(N4Cc5cc(OCCN(C)C)ccc5C4=O)c3n2)cc1` [Compound I-47, 5-(2-(dimethylamino)ethoxy)-2-(2-(4-(isopropylsulfonyl)phenyl)-5H-pyrrolo[2,3-b]pyrazin-7-yl)isoindolin-1-one]: at most 50 nM. Regarding `CC(C)S(=O)(=O)c1ccc(-c2cnc3[nH]cc(N4C(=O)c5ccccc5C4CCO)c3n2)cc1` (stereo not drawn) [Compound I-48, 3-(2-hydroxyethyl)-2-(2-(4-(isopropylsulfonyl)phenyl)-5H-pyrrolo[2,3-b]pyrazin-7-yl)isoindolin-1-one], the Ki is at most 50 nM.

For the origin of these results see patent US9309250B2, “Substituted pyrrolo[2,3-b]pyrazines as ATR kinase inhibitors” (Vertex Pharmaceuticals Incorporated, priority 2011, dated 2016).
